From ChEMBL document CHEMBL1201862, “PubChem BioAssay data set” (2004)
Each block holds one molecule with its values, some of them ahead of it. Active and inactive are the calls of the source.

What was measured:
[1] = viability of uninfected HEp-2 cells – cell-based, HTS, cytotoxicity control for RSV inhibitor project, dose response (AID 2410); format: functional; settings: human respiratory syncytial virus
[2] = molecular target: T1, Corticotropin-releasing factor receptor 2/Corticotropin-releasing factor-binding protein (Homo sapiens, UniProt P24387+Q13324); assay: Dose Response confirmation of uHTS hits for small molecule antagonists of the CRF-binding protein and CRF-R2 receptor complex.; format: functional; settings: read-out: IC50_Mean
T1 sequence (Q13324 whole entry): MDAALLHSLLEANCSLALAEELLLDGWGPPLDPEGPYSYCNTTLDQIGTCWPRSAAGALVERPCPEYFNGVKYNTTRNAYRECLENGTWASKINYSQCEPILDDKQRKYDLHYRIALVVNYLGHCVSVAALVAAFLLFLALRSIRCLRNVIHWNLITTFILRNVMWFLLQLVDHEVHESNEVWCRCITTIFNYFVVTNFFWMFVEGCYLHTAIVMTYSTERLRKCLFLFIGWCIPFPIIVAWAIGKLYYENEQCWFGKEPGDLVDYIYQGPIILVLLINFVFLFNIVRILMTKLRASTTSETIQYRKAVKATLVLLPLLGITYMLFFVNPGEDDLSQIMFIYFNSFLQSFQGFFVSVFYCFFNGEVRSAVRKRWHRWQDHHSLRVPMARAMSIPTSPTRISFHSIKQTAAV
T1 sequence (P24387 whole entry): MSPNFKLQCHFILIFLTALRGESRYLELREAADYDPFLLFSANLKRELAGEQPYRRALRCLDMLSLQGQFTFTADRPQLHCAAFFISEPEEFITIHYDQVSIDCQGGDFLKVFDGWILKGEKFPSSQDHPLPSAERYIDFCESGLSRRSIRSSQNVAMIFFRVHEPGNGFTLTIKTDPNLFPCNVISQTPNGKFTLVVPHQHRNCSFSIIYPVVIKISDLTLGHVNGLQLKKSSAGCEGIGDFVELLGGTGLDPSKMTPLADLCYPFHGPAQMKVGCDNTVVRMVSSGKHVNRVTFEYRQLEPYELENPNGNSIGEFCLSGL

[3] = molecular target: T1, Corticotropin-releasing factor receptor 2/Corticotropin-releasing factor-binding protein; assay: activators of CRF receptor 2 with binding protein – uHTS hits, confirmation (AID 602473); format: functional; settings: read-out: EC50_Mean
[4] = blockers of CRF-binding protein–CRF-R2 complex – cell-based, uHTS hits, 384-well, dose response (AID 651639); format: functional, Homo sapiens; settings: read-out: IC50_Mean
[5] = molecular target: Neuropeptide Y receptor type 2 (Homo sapiens, UniProt P49146); assay: IC50 for human NPY-Y2 blockade – cell-based, counter-screen for NPY-Y1 antagonist project, dose response (AID 1278); format: functional
[6] = molecular target: Neuropeptide Y receptor type 1 (Homo sapiens, UniProt P25929); assay: IC50 of human NPY-Y1 blockers – cell-based, dose response (AID 1277); format: functional
NADPH oxidase 1 = molecular target: T2, NADPH oxidase 1 (Homo sapiens, UniProt Q9Y5S8); assay: Luminescence-based cell-based dose response assay to identify inhibitors of NADPH oxidase 1 (NOX1).; format: functional
T2 sequence (Q9Y5S8 whole entry): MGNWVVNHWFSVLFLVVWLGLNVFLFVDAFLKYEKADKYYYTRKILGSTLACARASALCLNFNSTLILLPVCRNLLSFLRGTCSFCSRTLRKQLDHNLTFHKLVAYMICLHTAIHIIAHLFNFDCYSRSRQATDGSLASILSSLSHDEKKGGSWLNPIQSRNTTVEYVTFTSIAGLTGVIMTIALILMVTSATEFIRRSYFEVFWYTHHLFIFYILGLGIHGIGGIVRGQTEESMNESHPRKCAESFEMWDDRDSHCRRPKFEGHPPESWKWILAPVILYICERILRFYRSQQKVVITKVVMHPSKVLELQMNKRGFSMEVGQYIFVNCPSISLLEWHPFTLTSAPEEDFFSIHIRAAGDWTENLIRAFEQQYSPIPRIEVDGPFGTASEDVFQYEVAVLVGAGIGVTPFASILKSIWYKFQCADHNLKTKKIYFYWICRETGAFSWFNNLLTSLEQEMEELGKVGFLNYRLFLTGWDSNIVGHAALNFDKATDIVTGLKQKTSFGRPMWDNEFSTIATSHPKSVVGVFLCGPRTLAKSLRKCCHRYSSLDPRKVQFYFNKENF

Neuropeptide Y receptor type 2, sequence (P49146 whole entry): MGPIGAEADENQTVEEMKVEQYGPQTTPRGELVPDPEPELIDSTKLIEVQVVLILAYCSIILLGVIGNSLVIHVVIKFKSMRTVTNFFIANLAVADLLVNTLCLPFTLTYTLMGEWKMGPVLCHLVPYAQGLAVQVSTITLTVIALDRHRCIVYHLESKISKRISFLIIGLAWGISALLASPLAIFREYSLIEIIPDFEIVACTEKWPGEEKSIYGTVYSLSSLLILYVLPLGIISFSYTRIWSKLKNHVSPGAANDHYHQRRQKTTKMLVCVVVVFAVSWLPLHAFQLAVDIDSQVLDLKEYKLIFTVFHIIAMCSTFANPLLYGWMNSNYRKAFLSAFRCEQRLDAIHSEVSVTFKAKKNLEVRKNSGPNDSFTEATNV
Neuropeptide Y receptor type 1, sequence (P25929 whole entry): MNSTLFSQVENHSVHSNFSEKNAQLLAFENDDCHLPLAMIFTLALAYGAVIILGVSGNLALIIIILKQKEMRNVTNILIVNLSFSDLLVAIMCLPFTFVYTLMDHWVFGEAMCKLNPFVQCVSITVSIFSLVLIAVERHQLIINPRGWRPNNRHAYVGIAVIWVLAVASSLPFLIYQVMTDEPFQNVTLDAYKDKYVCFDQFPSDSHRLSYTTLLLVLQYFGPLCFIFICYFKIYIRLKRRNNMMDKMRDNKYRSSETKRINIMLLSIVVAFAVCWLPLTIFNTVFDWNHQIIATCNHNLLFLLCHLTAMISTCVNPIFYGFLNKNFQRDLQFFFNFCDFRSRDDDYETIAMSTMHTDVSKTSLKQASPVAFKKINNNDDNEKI

Structure (SMILES): O=C(O)c1ccc(-c2nc(-c3ccc(Cl)cc3Cl)cs2)cc1
CC50 [1]: > 50 µM (active)
IC50 [2]: 3.82 µM (active)
EC50 [3]: > 53 µM (inactive)
IC50 [4]: > 20 µM (inactive)
IC50 (cells): 44.2 µM (active)

IC50 [5]: > 35 µM (not active)
IC50 [6]: 30.4 µM (not active)
Structure (SMILES): COc1ccccc1N(CC(=O)NC1CCCC1)C(=O)c1oc(C(C)(C)C)cc1C

IC50 (NADPH oxidase 1): 0.053 µM (active)
Structure (SMILES): CC(=NNc1ccc(C(=O)O)cc1)c1ccc2c(c1)Nc1ccccc1S2
